Experimental data from US20060241026A1, “Novel cyclic peptides and use thereof as anti-microbial agents” (priority 2002, published 2006).
Positions of bridges follow the written chain, without caps; N, C: chain ends. Residues, ends and D or L forms follow the SMILES beside them.

Experiments:
[1] = system: Gram+ and Gram− bacteria and a filamentous fungus; assay: Antibiotic tests on Gram+ and Gram- bacteria and on a filamentous fungus, summary in words; format: cell-based; settings: compared with the native molecule or the minimal loop
Description: The activity of the synthetic peptides was tested with respect to the Gram+ bacteria Mycrocossus luteus, Staphylococcus aureus, Staphylococcus epidermidis and Bacillus megaterium. The activities were determined according to the protocol described by HANCOCK et al. (http://www.interchg.ubc.ca/bobh/methods.htm)
The MIC was determined for each peptide by inhibition of growth in liquid medium. Doubling dilution of peptide was realized in the wells of a Microtest plate in a volume of 10 μl. The bacteria were grown in MUELLER HINTON BROTH (MHB, Difco) liquid medium. During the exponential growth phase, a solution with an optical density of 0.001 at 600 nm was produced, and 100 μl of this suspension were added to each well. The incubation lasted 24 h at 30° C., and the optical densities of each well were then measured at 600 nm. The value of the MIC corresponds to the first well for which the optical density had not changed.
The dishes were incubated for 24 h at 30° C. The value of the MBC corresponds to the lowest concentration of the peptide for which no colony developed.
The anti-fungal activity was determined by calculating the MIC in a growth inhibition assay for the shrimp parasite fungus Fusarium oxysporum, in liquid phase, according to the protocol described by FELHBAM et al. (J. Biol. Chem., 1994, 269:33159-63). Doubling dilutions of each peptide were realized in the wells of a Microtest plate in a volume of 10 μl. 90 μl of spores resuspended in potato dextrose broth medium (DIFCO) at a final concentration of 10^4 spores/ml were added to each well. The growth inhibition was measured after incubation for 24 h at 25° C. in the dark, by observation under an optical microscope and measurement of the increase in OD at 600 nm. The value of the MIC corresponds to the first well for which the optical density had not increased.
Using the 3-D structure of the native molecule as a basis, said molecule was fractionated into 17 elements (table I). All these fragments were synthesized and their activities were assayed using antibiotic tests on Gram+ and Gram− bacteria and on a filamentous fungus. The minimum inhibitory concentration (MIC) and minimum […] concentration (MBC) of each peptide were thus determined and were compared with those of the native molecule.

[2] = system: Gram+ and Gram− bacteria and a filamentous fungus; assay: as above; format: cell-based

With `CC(C)C[C@@H]1NC(=O)[C@H](CCCNC(=N)N)NC(=O)[C@H](Cc2c[nH]cn2)NC(=O)[C@H](Cc2c[nH]c3ccccc23)NC(=O)CNC(=O)CNC(=O)[C@@H]2CSSC[C@H](NC(=O)[C@H](CCCNC(=N)N)NC1=O)C(=O)N[C@@H]([C@@H](C)O)C(=O)N[C@@H](CO)C(=O)N[C@@H](Cc1ccc(O)cc1)C(=O)N[C@@H](CCCNC(=N)N)C(=O)N[C@H](C(=O)NCC(=O)O)CSSC[C@H](N)C(=O)NCC(=O)NCC(=O)N[C@@H](Cc1ccc(O)cc1)C(=O)N2` [SEQ ID NO:7, C^(S2)GGYC^(S1)GGWHRLRC^(S1)TSYRC^(S2)G] (H-CGGYCGGWHRLRCTSYRCG-OH; disulfide 1-18, 5-13; N-terminus and C-terminus assumed) the “anti-microbial activity (in words)” value [1] was “more active than the minimal structure” and the “ability to lyse cells” value [2] was “brings about the ability to lyse cells”.
